The source of these data is patent US10647713B2 (Nimbus Lakshmi, Inc., priority 2016, dated 2020).

Usually Kd stands for a measure of binding affinity in units of concentration. Higher therefore signals weaker binding.

Each structure is given as a SMILES string. Some results are limits rather than exact numbers.

In the assay the target is human TYK2 (JH2domain-pseudokinase) (Homo sapiens (Human), UniProt P29597). Description: TYK2 JH2 Domain Binding Assay (KINOMEscan, DiscoveRx). The following applies: 11-point dilution, duplicate. Summed up: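 TYK2 JH2 (G556–D888)–NFkB DBD fusion, DNA-tagged, from HEK293 extracts (<0.1 nM) competed against immobilised biotinylated ligand for 1 h at room temperature, 0.9% DMSO. Bead-retained kinase quantified by qPCR; Kd from 11-point 3-fold series (top 30,000 nM, duplicate), Hill fit with slope −1.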
Sequence of human TYK2 (JH2domain-pseudokinase) (P29597 556-888): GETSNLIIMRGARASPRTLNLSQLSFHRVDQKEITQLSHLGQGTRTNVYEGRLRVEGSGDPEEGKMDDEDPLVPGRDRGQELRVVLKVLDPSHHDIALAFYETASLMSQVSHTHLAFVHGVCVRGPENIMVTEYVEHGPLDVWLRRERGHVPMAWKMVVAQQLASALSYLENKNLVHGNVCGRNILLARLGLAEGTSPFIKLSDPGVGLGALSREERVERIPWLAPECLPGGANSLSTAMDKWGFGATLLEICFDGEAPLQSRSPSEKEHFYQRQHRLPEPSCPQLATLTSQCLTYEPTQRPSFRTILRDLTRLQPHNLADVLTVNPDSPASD
With `Cc1nc2c(Nc3ccccc3N(C(F)F)S(C)(=O)=O)cc(Nc3cccc(C#N)n3)nc2[nH]1` [I-249, N-(2-((5-((6-cyanopyridin-2-yl)amino)-2-methyl-3H-imidazo[4,5-b]pyridin-7-yl)amino)phenyl)-N-(difluoromethyl)methanesulfonamide], the Kd lay in the range of 1 to 10 nM. As for `Cc1nc2c(Nc3ccc(-c4cn(C)cn4)cc3S(C)(=O)=O)cc(NC(=O)[C@@H]3C[C@@H]3F)nc2[nH]1` [I-250, (1S,2S)-2-fluoro-N-(2-methyl-7-((4-(1-methyl-1H-imidazol-4-yl)-2-(methylsulfonyl)phenyl)amino)-3H-imidazo[4,5-b]pyridin-5-yl)cyclopropane-1-carboxamide], the figure is less than 0.1 nM; as for `Cc1nc2c(Nc3ccc(-c4cn(C)cn4)cc3S(C)(=O)=O)cc(NC(=O)[C@H]3C[C@H]3F)nc2[nH]1` [I-251, (1R,2R)-2-fluoro-N-(2-methyl-7-((4-(1-methyl-1H-imidazol-4-yl)-2-(methylsulfonyl)phenyl)amino)-3H-imidazo[4,5-b]pyridin-5-yl)cyclopropane-1-carboxamide], 0.1 to 0.5 nM; as for `CS(=O)(=O)c1cc([C@H]2CCCOC2)ccc1Nc1cc(NC(=O)C2CC2)nc2[nH]c(C(F)F)nc12` [I-252, (R)—N-(2-(difluoromethyl)-7-((2-(methylsulfonyl)-4-(tetrahydro-2H-pyran-3-yl)phenyl)amino)-3H-imidazo[4,5-b]pyridin-5-yl)cyclopropanecarboxamide], 1 to 10 nM. Under `CS(=O)(=O)c1cc([C@@H]2CCCOC2)ccc1Nc1cc(NC(=O)C2CC2)nc2[nH]c(C(F)F)nc12` [I-253, (S)—N-(2-(difluoromethyl)-7-((2-(methylsulfonyl)-4-(tetrahydro-2H-pyran-3-yl)phenyl)amino)-3H-imidazo[4,5-b]pyridin-5-yl)cyclopropanecarboxamide] stands 0.1 to 0.5 nM; under `Cc1nc2c(Nc3ccc([C@@H]4CCCOC4)cc3S(C)(=O)=O)cc(NC(=O)C3CC3)nc2[nH]1` [I-255, (S)—N-(2-methyl-7-((2-(methylsulfonyl)-4-(tetrahydro-2H-pyran-3-yl)phenyl)amino)-3H-imidazo[4,5-b]pyridin-5-yl)cyclopropanecarboxamide], 0.1 to 0.5 nM; under `Cc1nc2c(Nc3ccc([C@H]4CCCCO4)cc3S(C)(=O)=O)cc(NC(=O)[C@H]3CC3(F)F)nc2[nH]1` [I-256, (R)-2,2-difluoro-N-(2-methyl-7-((2-(methylsulfonyl)-4-((R)-tetrahydro-2H-pyran-2-yl)phenyl)amino)-3H-imidazo[4,5-b]pyridin-5-yl)cyclopropane-1-carboxamide], 0.5 to 1 nM.

`Cc1nc2c(Nc3ccc([C@H]4CCCCO4)cc3S(C)(=O)=O)cc(NC(=O)[C@@H]3CC3(F)F)nc2[nH]1` [I-257, (S)-2,2-difluoro-N-(2-methyl-7-((2-(methylsulfonyl)-4-((R)-tetrahydro-2H-pyran-2-yl)phenyl)amino)-3H-imidazo[4,5-b]pyridin-5-yl)cyclopropane-1-carboxamide]: the Kd lay in the range of 1 to 10 nM.

On to `CS(=O)(=O)c1cc(C(F)(F)F)ccc1Nc1cc(NC(=O)C2CC2)nc2[nH]c(C(F)F)nc12` [I-258, N-(2-(difluoromethyl)-7-((2-(methylsulfonyl)-4-(trifluoromethyl)phenyl)amino)-3H-imidazo[4,5-b]pyridin-5-yl)cyclopropanecarboxamide], for which the Kd was in the range of 1 to 10 nM. On to `Cc1nc2c(Nc3ccc(C(F)(F)F)cc3S(C)(=O)=O)cc(NC(=O)C3CC3)nc2[nH]1` [I-259, N-(2-methyl-7-((2-(methylsulfonyl)-4-(trifluoromethyl)phenyl)amino)-3H-imidazo[4,5-b]pyridin-5-yl)cyclopropanecarboxamide], for which the Kd lay within 1 to 10 nM.

Compound `Cc1nc2c(Nc3ccc(-c4cncn4C)cc3S(C)(=O)=O)cc(NC(=O)[C@@H]3C[C@@H]3F)nc2[nH]1` [I-260, (1S,2S)-2-fluoro-N-(2-methyl-7-((4-(1-methyl-1H-imidazol-5-yl)-2-(methylsulfonyl)phenyl)amino)-3H-imidazo[4,5-b]pyridin-5-yl)cyclopropane-1-carboxamide] yielded a Kd of less than 0.1 nM.
